Among the data in patent publication US11746085B2, “Triphenylsulfonium salt compound, and uses thereof” (Changzhou Tronly Advanced Electronic Materials Co., Ltd., priority 2018, dated 2023) are Solubility values, retold here.

Molecules are shown by their SMILES.

A short description of the data set: Dissolution performance test: solubility in 3-ethyl-3-hydroxymethyl oxetane monomer. The data set is classed as physicochemical. As to conditions: maximum number of grams dissolved in 100 g 3-ethyl-3-hydroxymethyl oxetane monomer at 20° C. The protocol:
The solubility in 3-ethyl-3-hydroxymethyl oxetane monomer was tested for Compound A-1 to A-38 and C-1 to C-25, and comparative compounds B-1 and B-2 as well as D-1 and D-2 in the present invention, calculated based on the maximum number of grams dissolved in 100 g solvent at 20° C.

As to `Fc1ccc([S+](c2ccccc2)c2ccc(Sc3ccccc3)cc2)cc1F` (centres unmarked) [Compound A-20], the Solubility (Table 3) stood at 19.8 g. With `Cc1ccc([S+](c2ccccc2)c2ccc(Sc3ccc([S+](c4ccccc4)c4ccc(C)c(F)c4)cc3)cc2)cc1F` (centres unmarked) [Compound C-17], the Solubility (Table 4) is 21.5 g.
